Where a name gives a salt, the structure may show the parent alone. Read-outs that look alike come from different tables or passages of the source.
Legend:
Type in all cases: cell-based
[1] = system: Mycobacterium tuberculosis; assay: Mycobacterium tuberculosis Serum Shift MIC Assay (Protocol 5); settings: ATCC 35801 / ERDMAN
Excerpt: Protocol 5. Protocol for Mycobacterium tuberculosis Serum Shift MIC Assay
Media Prep: • 1. […] It was important that all media and supplements were sterilized prior to MICs. • 2. Prepared all media below and inoculated as described in next section. Tested all compounds against Mtb using each media. • a. […] 7H9+0.2% glycerol+2 g/L dextrose+0.85 g/L NaCl+0.003 g/L catalase (0% FBS). • c. 2×7H9+0.2% glycerol+2 g/L dextrose+0.85 g/L NaCl+0.003 g/L catalase combined with equal volume Fetal Bovine Serum (50% FBS).
Inoculum Prep: • 1. Using BBL Prompt, picked 5-10 well-separated colonies and inoculated 1 ml sterile saline that came in the kit. Typically plates were two to three weeks of age when used for this assay due to the slow growth of this organism in culture. • 2. Vortexed well, then sonicated in water bath for 30 sec providing a suspension of ˜10^8 cells/ml. Actual density could be confirmed by plating out dilutions of this suspension. • 3. Prepared inoculum in each of the three media formulations by diluting the BBL Prompt suspension 1/200 (for example: transferred 0.2 ml of cells to 40 ml of medium) to obtain a starting cell density of […]. • 4. Used 100 μl cells (˜5×10^4 cells) to inoculate each microtiter well containing 1 μl of drug in DMSO (see below).
Drug Dilutions, Inoculation, MIC Determination: • 1. Control drug stocks Isoniazid and Novobiocin were prepared at 10 mM in 100% DMSO while Ciprofloxacin and Rifampin were prepared at 1 mM in 50% DMSO and 100% DMSO, respectively. Prepared dilutions—dispensed 100 μL of the stock solution into the first column of a 96-well plate. Prepared 11-step, 2-fold serial dilutions across the row for each compound by transferring 50 μl from column 1 into 50 μl of DMSO in column 2. Continued to transfer 50 μL from column 2 through column 11 while mixing and changing tips at each column. Left column 12 with DMSO only as a control. • 2. Transferred 1 μl of each dilution into an empty microtiter well prior to the addition of 100 μl of cells. The starting concentration of Isoniazid and Novobiocin was 100 μM after the dilution into medium+cells; the starting concentration of Ciprofloxacin and Rifampin was 10 μM after the dilution into medium+cells. Compound concentrations decreased in 2× steps moving across the rows of the microtiter plate. […] Measured background fluorescence at Excitation 492 nm, Emission 595 nm and returned the plate to the incubator for another 24 hours.
After 24 hours the fluorescence of each well was measured at Excitation 492 nm, Emission 595 nm.
Percent inhibition by a given compound was calculated as follows: Percent inhibition=100−([well fluorescence-average background fluorescence]/[DMSO control−average background fluorescence]×100). […]

M. kansasii = assay: MIC in bacterial broth culture (7H9 with ADC, visual or resazurin); settings: Mycobacterium kansasii, Table 31; M. kansasii 303; duplicate values
M. smegmatis = assay: as above; settings: Mycolicibacterium smegmatis, Table 31
M. tuberculosis Erdman = assay: MBC assay, log killing reduction in CFU over a one month period of incubation (Table 35); settings: for Log Reduction (cfu): Compound 23A at 4×MIC

## CCNC(=O)Nc1nc2cc(-c3cnc(C(C)(C)O)nc3)c(F)c([C@H]3CCCO3)c2[nH]1 [Compound 23A, methanesulfonic acid salt of 1-ethyl-3-[6-fluoro-5-[2-(1-hydroxy-1-methyl-ethyl)pyrimidin-5-yl]-7-[(2R)-tetrahydrofuran-2-yl]-1H-benzimidazol-2-yl]urea]
[1]; M. tuberculosis Erdman ATCC 35801, read-out: MIC
  MIC: 0.03 µg/mL
[1]; M. tuberculosis Erdman ATCC 35801 with Mouse Serum
  MIC: 0.5 µg/mL
M. kansasii
  MIC: 0.03 µg/mL
M. smegmatis
  MIC: 6.25 µg/mL
M. tuberculosis Erdman; 4×MIC, one month period of incubation
  killing kinetics (log reduction in CFU): slow killing kinetics
M. tuberculosis Erdman; day 0 of incubation
  Log Reduction (cfu): 0 Log
M. tuberculosis Erdman; day 1 of incubation
  Log Reduction (cfu): 0.2 Log
M. tuberculosis Erdman; day 2 of incubation
  Log Reduction (cfu): 0.2 Log
M. tuberculosis Erdman; day 3 of incubation
  Log Reduction (cfu): 1.0 Log
M. tuberculosis Erdman; day 7 of incubation
  Log Reduction (cfu): 1.9 Log
M. tuberculosis Erdman; day 14 of incubation
  Log Reduction (cfu): 1.9 Log
M. tuberculosis Erdman; day 21 of incubation
  Log Reduction (cfu): 2.2 Log
M. tuberculosis Erdman; day 28 of incubation
  Log Reduction (cfu): 3.0 Log

Reference: US9937192B2, “Combination therapy to treat mycobacterium diseases” (priority 2012, dated 2018)
